The source made the active and inactive calls. The calls are words filed in the database; no cut-off is given here.
Experiments:
[1] = Drug uptake in rat brain at 10 mg/kg, po after 4 hrs; assay type: ADME, organism-based; set-up: dose 10 mg/kg, route oral; conditions: read-out: Drug uptake
Mus musculus [2] = experiment: Antidiabetic activity in STZ-induced diabetic ICR mouse DIO model at 30 mg/kg, po qd for 2 days; assay type: functional, organism-based; set-up: dose 30 mg/kg
Histamine H3 receptor [3] = target: Histamine H3 receptor (Mus musculus, UniProt P58406); experiment: Displacement of [3H]N-alpha-methylhistamine from mouse histamine H3 receptor
Chain of Histamine H3 receptor (Mus musculus, UniProt P58406) (P58406 whole entry): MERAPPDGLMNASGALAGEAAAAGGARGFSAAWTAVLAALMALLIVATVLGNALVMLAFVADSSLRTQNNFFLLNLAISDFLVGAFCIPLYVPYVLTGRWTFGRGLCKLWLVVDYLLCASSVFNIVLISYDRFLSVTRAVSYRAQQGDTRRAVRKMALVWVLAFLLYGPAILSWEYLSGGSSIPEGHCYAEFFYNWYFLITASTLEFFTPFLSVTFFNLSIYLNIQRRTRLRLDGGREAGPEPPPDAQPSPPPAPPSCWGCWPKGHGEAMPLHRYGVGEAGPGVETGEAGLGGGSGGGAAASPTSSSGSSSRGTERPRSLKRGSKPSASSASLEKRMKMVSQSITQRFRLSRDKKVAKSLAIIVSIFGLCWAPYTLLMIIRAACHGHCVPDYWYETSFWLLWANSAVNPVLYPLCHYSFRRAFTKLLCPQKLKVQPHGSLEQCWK

[4] = AUC (0 to 6 hrs) in rat at 10 mg/kg, po; assay type: ADME, organism-based; set-up: time < 6 hr, dose 10 mg/kg, route oral; conditions: plasma
Mus musculus [5] = experiment: Ex-vivo receptor occupancy in ICR mouse cortex assessed as displacement of [3H]N-alpha-methylhistamine from histamine H3 receptor at 10 mg/kg, po after 4 hrs post dose by scintillation counting; assay type: functional
Histamine H3 receptor [6] = target: Histamine H3 receptor (Homo sapiens, UniProt Q9Y5N1); experiment: Displacement of [3H]N-alpha-methylhistamine from recombinant human histamine H3 receptor expressed in HEK cell membranes after 30 mins by scintillation counting; set-up: species or system HEK293
Chain of Histamine H3 receptor (Homo sapiens, UniProt Q9Y5N1) (Q9Y5N1 whole entry): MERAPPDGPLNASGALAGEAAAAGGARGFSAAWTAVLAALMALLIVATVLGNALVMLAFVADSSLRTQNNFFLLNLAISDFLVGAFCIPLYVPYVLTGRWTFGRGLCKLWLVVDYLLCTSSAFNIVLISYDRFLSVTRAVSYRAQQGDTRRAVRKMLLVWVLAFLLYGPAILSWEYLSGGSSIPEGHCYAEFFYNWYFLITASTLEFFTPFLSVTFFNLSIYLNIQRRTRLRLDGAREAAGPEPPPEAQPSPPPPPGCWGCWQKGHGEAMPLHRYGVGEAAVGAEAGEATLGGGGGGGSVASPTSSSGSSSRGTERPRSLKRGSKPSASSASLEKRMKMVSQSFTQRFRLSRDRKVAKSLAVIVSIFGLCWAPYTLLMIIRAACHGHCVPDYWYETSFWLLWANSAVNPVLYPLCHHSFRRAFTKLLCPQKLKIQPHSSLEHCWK

Mus musculus [7] = experiment: Antiobesity activity in STZ-induced diabetic ICR mouse DIO model at 30 mg/kg, po qd for 2 days; assay type: functional, organism-based; set-up: dose 30 mg/kg
Mus musculus [8] = experiment: Ex-vivo receptor occupancy in ICR mouse cortex assessed as displacement of [3H]N-alpha-methylhistamine from histamine H3 receptor at 30 mg/kg, po after 4 hrs post dose by scintillation counting; assay type: functional
Mus musculus [9] = experiment: Antiobesity activity in STZ-induced diabetic ICR mouse DIO model assessed as reduction in food intake at 30 mg/kg, po qd for 2 days relative to vehicle-treated control; assay type: functional; conditions: 48 h
Mus musculus [10] = experiment: Antidiabetic activity in STZ-induced diabetic ICR mouse DIO model assessed as glucose level at 30 mg/kg, po qd for 2 days; assay type: functional
Mus musculus [11] = experiment: Antiobesity activity in STZ-induced diabetic ICR mouse DIO model assessed as change in body weight at 30 mg/kg, po qd for 2 days relative to vehicle-treated control; assay type: functional
Cytochrome P450 3A4 [12] = target: T1, Cytochrome P450 3A4 (Homo sapiens, UniProt P08684); experiment: Inhibition of CYP3A4 preincubated with compound; assay type: ADME
T1 sequence (P08684 whole entry): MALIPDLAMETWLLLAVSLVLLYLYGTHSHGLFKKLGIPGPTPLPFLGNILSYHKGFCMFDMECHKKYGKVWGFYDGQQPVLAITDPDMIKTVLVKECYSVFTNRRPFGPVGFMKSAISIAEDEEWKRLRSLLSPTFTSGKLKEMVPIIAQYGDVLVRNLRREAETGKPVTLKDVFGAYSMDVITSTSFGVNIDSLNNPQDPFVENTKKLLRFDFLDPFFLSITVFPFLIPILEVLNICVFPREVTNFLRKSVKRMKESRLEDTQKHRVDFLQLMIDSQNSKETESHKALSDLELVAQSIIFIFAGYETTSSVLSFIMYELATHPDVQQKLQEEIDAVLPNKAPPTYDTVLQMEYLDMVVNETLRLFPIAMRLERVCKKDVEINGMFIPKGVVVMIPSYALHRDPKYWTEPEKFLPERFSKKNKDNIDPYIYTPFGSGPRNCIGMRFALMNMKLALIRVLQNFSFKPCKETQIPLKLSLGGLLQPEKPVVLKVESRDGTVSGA

Cytochrome P450 2D6 [13] = target: T2, Cytochrome P450 2D6 (Homo sapiens, UniProt P10635); experiment: Inhibition of CYP2D6 preincubated with compound; assay type: ADME
T2 sequence (P10635 whole entry): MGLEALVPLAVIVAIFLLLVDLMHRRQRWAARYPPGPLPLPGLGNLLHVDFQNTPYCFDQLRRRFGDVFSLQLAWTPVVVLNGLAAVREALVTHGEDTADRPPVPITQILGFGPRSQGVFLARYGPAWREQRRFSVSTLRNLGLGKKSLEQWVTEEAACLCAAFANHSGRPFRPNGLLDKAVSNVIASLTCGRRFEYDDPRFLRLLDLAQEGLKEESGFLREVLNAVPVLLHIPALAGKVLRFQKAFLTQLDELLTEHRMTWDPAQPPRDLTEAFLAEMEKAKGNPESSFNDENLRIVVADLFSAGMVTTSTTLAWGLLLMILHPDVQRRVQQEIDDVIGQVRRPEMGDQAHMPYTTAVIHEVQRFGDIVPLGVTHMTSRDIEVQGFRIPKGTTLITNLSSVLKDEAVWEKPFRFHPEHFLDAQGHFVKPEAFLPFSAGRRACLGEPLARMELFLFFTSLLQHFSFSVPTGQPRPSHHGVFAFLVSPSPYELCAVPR

Cytochrome P450 2C9 [14] = target: T3, Cytochrome P450 2C9 (Homo sapiens, UniProt P11712); experiment: Inhibition of CYP2C9 preincubated with compound; assay type: ADME; conditions: read-out: INH
T3 sequence (P11712 whole entry): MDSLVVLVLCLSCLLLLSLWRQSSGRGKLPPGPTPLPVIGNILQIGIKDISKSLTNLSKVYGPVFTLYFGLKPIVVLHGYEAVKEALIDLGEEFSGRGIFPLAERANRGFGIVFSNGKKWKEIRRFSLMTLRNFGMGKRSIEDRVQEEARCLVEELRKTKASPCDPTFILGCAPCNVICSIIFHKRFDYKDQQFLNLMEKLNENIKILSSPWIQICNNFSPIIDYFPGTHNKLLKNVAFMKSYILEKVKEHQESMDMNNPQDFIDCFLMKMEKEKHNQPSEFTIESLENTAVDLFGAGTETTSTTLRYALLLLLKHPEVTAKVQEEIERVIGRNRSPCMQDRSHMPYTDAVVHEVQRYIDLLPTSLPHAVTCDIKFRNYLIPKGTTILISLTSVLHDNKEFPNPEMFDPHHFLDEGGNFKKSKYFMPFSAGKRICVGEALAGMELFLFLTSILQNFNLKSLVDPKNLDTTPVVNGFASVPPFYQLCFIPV

hERG = hERG (Homo sapiens, UniProt Q12809); experiment: Inhibition of human ERG at 10 uM
Chain of hERG (Q12809 whole entry): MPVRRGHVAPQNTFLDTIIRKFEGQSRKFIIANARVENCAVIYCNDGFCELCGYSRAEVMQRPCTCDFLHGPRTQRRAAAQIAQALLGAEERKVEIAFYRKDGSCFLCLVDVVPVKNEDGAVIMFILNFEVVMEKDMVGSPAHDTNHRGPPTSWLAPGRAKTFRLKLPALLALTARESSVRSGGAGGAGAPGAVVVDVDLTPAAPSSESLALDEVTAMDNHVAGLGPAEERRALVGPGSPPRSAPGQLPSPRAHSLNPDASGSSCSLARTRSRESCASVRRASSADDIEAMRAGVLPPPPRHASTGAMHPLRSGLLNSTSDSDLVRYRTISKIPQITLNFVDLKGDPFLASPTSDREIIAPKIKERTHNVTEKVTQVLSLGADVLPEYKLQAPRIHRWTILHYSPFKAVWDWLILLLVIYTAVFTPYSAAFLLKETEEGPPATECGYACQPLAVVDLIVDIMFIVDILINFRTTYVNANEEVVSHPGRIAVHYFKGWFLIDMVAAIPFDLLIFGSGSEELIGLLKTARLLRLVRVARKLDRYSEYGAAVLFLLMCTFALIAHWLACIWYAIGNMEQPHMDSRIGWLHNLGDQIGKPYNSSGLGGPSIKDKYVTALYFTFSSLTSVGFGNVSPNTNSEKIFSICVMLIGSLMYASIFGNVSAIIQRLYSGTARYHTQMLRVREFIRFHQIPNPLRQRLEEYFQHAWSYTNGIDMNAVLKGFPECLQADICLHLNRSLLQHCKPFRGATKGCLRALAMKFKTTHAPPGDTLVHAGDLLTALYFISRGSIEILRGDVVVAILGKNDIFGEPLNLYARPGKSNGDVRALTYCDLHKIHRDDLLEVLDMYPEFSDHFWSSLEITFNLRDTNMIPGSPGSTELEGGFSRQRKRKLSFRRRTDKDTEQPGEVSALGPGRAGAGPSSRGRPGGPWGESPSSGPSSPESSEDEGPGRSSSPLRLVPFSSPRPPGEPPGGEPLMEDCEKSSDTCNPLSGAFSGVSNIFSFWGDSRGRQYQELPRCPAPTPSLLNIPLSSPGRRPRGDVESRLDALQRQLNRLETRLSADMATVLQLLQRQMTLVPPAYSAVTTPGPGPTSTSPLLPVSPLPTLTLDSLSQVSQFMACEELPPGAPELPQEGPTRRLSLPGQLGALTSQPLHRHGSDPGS

Cytochrome P450 3A4 [15] = target: T1, Cytochrome P450 3A4; experiment: Inhibition of CYP3A4 co-incubated with compound; assay type: ADME
Cytochrome P450 2D6 [16] = target: T2, Cytochrome P450 2D6; experiment: Inhibition of CYP2D6 co-incubated with compound; assay type: ADME
Cytochrome P450 2C9 [17] = target: T3, Cytochrome P450 2C9; experiment: Inhibition of CYP2C9 co-incubated with compound; assay type: ADME

Q: For c1cnc2c(-c3nnc(N4CCC(N5CCCCC5)CC4)s3)cccc2c1, which concentration at 4 h [1] is on record?
A: 110 ng/g

Q: And the Activity (Mus musculus [2])?
A: inactive

Q: What about the Ki (Histamine H3 receptor [3]) of the same compound?
A: 7.2 nM

Q: What about the AUC(0-t) at 6 h [4] of the same compound?
A: 530 ng·h/mL

Q: What about the Occ (Mus musculus [5]) of the same compound?
A: 77%

Q: And the Ki (Histamine H3 receptor [6])?
A: 4.6 nM

Q: And the Activity (Mus musculus [7])?
A: inactive

Q: Which concentration at 4 h [1] does the source give for O=c1ccoc2ccc(-c3nnc(N4CCC(N5CCCCC5)CC4)s3)cc12 here?
A: 268 ng/g

Q: And the Activity (Mus musculus [2])?
A: inactive

Q: And the Ki (Histamine H3 receptor [3])?
A: 12 nM

Q: And the AUC(0-t) at 6 h [4]?
A: 1300 ng·h/mL

Q: What about the Occ (Mus musculus [5]) of the same compound?
A: 84%

Q: What about the Ki (Histamine H3 receptor [6]) of the same compound?
A: 12.7 nM

Q: And the Activity (Mus musculus [7])?
A: inactive

Q: Which Ki (Histamine H3 receptor [6]) does the source give for O=C1COc2ccc(-c3nnc(N4CCC(N5CCCCC5)CC4)s3)cc2N1 here?
A: 22.1 nM

Q: Which results are given for c1cc(-c2nnc(N3CCC(N4CCCCC4)CC3)s2)c2ccncc2c1?
A: Occ (Mus musculus [5]): 19%; Ki (Histamine H3 receptor [6]): 17.8 nM

Q: Which Occ (Mus musculus [5]) does the source give for O=c1ccc2c(-c3nnc(N4CCC(N5CCCCC5)CC4)s3)cccc2[nH]1 here?
A: 6%

Q: And the Ki (Histamine H3 receptor [6])?
A: 20 nM

Q: Which concentration at 4 h [1] does the source give for Cc1nnc(-c2cccc(-c3nnc(N4CCC(N5CCCCC5)CC4)s3)c2)o1 here?
A: 1290 ng/g

Q: What about the Activity (Mus musculus [2]) of the same compound?
A: inactive

Q: And the Ki (Histamine H3 receptor [3])?
A: 40 nM

Q: And the AUC(0-t) at 6 h [4]?
A: 2500 ng·h/mL

Q: And the Occ (Mus musculus [5])?
A: 46%

Q: And the Ki (Histamine H3 receptor [6])?
A: 22.8 nM

Q: What about the Activity (Mus musculus [7]) of the same compound?
A: inactive

Q: With CC(O)c1cccc(-c2nnc(N3CCC(N4CCCCC4)CC3)s2)c1 (centres undefined) as the compound, how does the Ki (Histamine H3 receptor [6]) read?
A: 29 nM

Q: Which Occ (Mus musculus [5]) does the source give for c1cc(-c2nnc(N3CCC(N4CCCCC4)CC3)s2)n2nccc2c1 here?
A: 22%

Q: What about the Ki (Histamine H3 receptor [6]) of the same compound?
A: 3.2 nM

Q: With CC(=O)Nc1cccc(-c2nnc(N3CCC(N4CCCCC4)CC3)s2)c1 as the compound, how does the Ki (Histamine H3 receptor [6]) read?
A: 16.5 nM

Q: Which Ki (Histamine H3 receptor [6]) does the source give for CN(C)C(=O)c1cccc(-c2nnc(N3CCC(N4CCCCC4)CC3)s2)c1 here?
A: 192 nM

Q: What does the source list for O=c1ccc2cc(-c3nnc(N4CCC(N5CCCCC5)CC4)s3)ccc2[nH]1?
A: Occ (Mus musculus [5]): 25%; Ki (Histamine H3 receptor [6]): 10 nM

Q: With O=c1ccnc2c(-c3nnc(N4CCC(N5CCCCC5)CC4)s3)cccn12 as the compound, how does the concentration at 4 h [1] read?
A: 2670 ng/g

Q: And the Activity (Mus musculus [2])?
A: inactive

Q: What about the Ki (Histamine H3 receptor [3]) of the same compound?
A: 2.6 nM

Q: And the AUC(0-t) at 6 h [4]?
A: 840 ng·h/mL

Q: What about the Occ (Mus musculus [5]) of the same compound?
A: 94%

Q: What about the Ki (Histamine H3 receptor [6]) of the same compound?
A: 2.1 nM

Q: And the Activity (Mus musculus [7])?
A: inactive

Q: With Cc1cc(=O)c2cc(-c3nnc(N4CCC(N5CCCCC5)CC4)s3)ccc2o1 as the compound, how does the AUC(0-t) at 6 h [4] read?
A: 8000 ng·h/mL

Q: What about the Ki (Histamine H3 receptor [6]) of the same compound?
A: 82.8 nM

Q: Which Ki (Histamine H3 receptor [6]) does the source give for O=C(c1cccc(-c2nnc(N3CCC(N4CCCCC4)CC3)s2)c1)N1CCC1 here?
A: 78.9 nM

Q: For O=C(c1cccc(-c2nnc(N3CCC(N4CCCCC4)CC3)s2)n1)N1CCC1, which Occ (Mus musculus [5]) is on record?
A: 6%

Q: And the Ki (Histamine H3 receptor [6])?
A: 4.4 nM

Q: For CC(=O)c1cccc(-c2nnc(N3CCC(N4CCCCC4)CC3)s2)c1, which Occ (Mus musculus [8]) is on record?
A: 62%

Q: What about the inhibition in vivo at 30 mg/kg (Mus musculus [9]) of the same compound?
A: 5.61%

Q: What about the Activity (Mus musculus [10]) of the same compound?
A: 7.08 mg/mL

Q: And the Activity (Mus musculus [11])?
A: -1.01%

Q: And the INH (Cytochrome P450 3A4 [12])?
A: > 20 µM

Q: What about the INH (Cytochrome P450 2D6 [13]) of the same compound?
A: > 20 µM

Q: What about the IC50 (Cytochrome P450 2C9 [14]) of the same compound?
A: > 20000 nM

Q: What about the inhibition at 10 µM (hERG) of the same compound?
A: 40%

Q: What about the INH (Cytochrome P450 3A4 [15]) of the same compound?
A: > 20 µM

Q: What about the INH (Cytochrome P450 2D6 [16]) of the same compound?
A: > 20 µM

Q: What about the INH (Cytochrome P450 2C9 [17]) of the same compound?
A: > 20 µM

Q: Which Ki (Histamine H3 receptor [6]) does the source give for Cc1nc2cc(-c3nnc(N4CCC(N5CCCCC5)CC4)s3)ccc2o1 here?
A: 24.5 nM

Q: Which Occ (Mus musculus [5]) does the source give for O=c1cccnn1-c1cccc(-c2nnc(N3CCC(N4CCCCC4)CC3)s2)c1 here?
A: 25%

Q: What about the Ki (Histamine H3 receptor [6]) of the same compound?
A: 12 nM

Q: Which Occ (Mus musculus [5]) does the source give for O=c1ccc2ccc(-c3nnc(N4CCC(N5CCCCC5)CC4)s3)cc2[nH]1 here?
A: 2%

Q: What about the Ki (Histamine H3 receptor [6]) of the same compound?
A: 35.9 nM

Q: With O=C1Cc2cc(-c3nnc(N4CCC(N5CCCCC5)CC4)s3)ccc2N1 as the compound, how does the Ki (Histamine H3 receptor [6]) read?
A: 64.4 nM

Q: Which results are given for O=c1ccnc2ccc(-c3nnc(N4CCC(N5CCCCC5)CC4)s3)cn12?
A: concentration at 4 h [1]: 1340 ng/g; Ki (Histamine H3 receptor [3]): 25 nM; AUC(0-t) at 6 h [4]: 7300 ng·h/mL; Occ (Mus musculus [5]): 69%; Ki (Histamine H3 receptor [6]): 13 nM; inhibition in vivo at 30 mg/kg (Mus musculus [9]): 33.6%; glucose change (Mus musculus [10]): -87 mg/dL; Activity (Mus musculus [11]): -3.02%; INH (Cytochrome P450 3A4 [12]): > 20 µM; INH (Cytochrome P450 2D6 [13]): > 20 µM; IC50 (Cytochrome P450 2C9 [14]): > 20000 nM; inhibition at 10 µM (hERG): 7%; INH (Cytochrome P450 3A4 [15]): > 20 µM; INH (Cytochrome P450 2D6 [16]): > 20 µM; INH (Cytochrome P450 2C9 [17]): > 20 µM

Q: Which concentration at 4 h [1] does the source give for Cc1nnc2ccc(-c3nnc(N4CCC(N5CCCCC5)CC4)s3)cn12 here?
A: 25 ng/g

Q: What about the Activity (Mus musculus [2]) of the same compound?
A: inactive

Q: And the Ki (Histamine H3 receptor [3])?
A: 2.4 nM

Q: What about the AUC(0-t) at 6 h [4] of the same compound?
A: 1200 ng·h/mL

Q: What about the Occ (Mus musculus [5]) of the same compound?
A: 34%

Q: And the Ki (Histamine H3 receptor [6])?
A: 3.4 nM

Q: And the Activity (Mus musculus [7])?
A: inactive
